Laboratory results from ChEMBL document CHEMBL4616661, “Sesquiterpenoids from Cultures of the Basidiomycetes Irpex lacteus” (J Nat Prod, 2020).
Active and inactive are the calls of the source. The calls are words filed in the database; no cut-off is given here.

Key:
Assay type in all cases: functional, cell-based
RAW264.7 [1] = test: Inhibition of NO production in mouse RAW264.7 macrophages at 40 uM incubated for 18 hrs by Griess reagent based assay
A549 [2] = test: Cytotoxicity against human A549 cells assessed as reduction in cell viability at 40 uM after 48 hrs by MTT assay
SMMC-7721 [3] = test: Cytotoxicity against human SMMC7721 cells assessed as reduction in cell viability at 40 uM after 48 hrs by MTT assay
SW480 [4] = test: Cytotoxicity against human SW480 cells assessed as reduction in cell viability at 40 uM after 48 hrs by MTT assay
HL-60 [5] = test: Cytotoxicity against human HL60 cells assessed as reduction in cell viability at 40 uM after 48 hrs by MTT assay
MCF7 [6] = test: Cytotoxicity against human MCF7 cells assessed as reduction in cell viability at 40 uM after 48 hrs by MTT assay
B-cell line = test: Immunosuppressive activity in BALB/c mouse B cells assessed as inhibition of LPS-induced cell proliferation by measuring reduction in uptake of [3H]-thymidine after 8 hrs by beta scintillation counting method
RAW264.7 [7] = test: Inhibition of NO production in mouse RAW264.7 macrophages incubated for 18 hrs by Griess reagent based assay; conditions: RAW264.7, 18 h
T-cell = test: Immunosuppressive activity in BALB/c mouse T cells assessed as inhibition of ConA-induced cell proliferation by measuring reduction in uptake of [3H]-thymidine after 8 hrs by beta scintillation counting method
SW480 [8] = test: Cytotoxicity against human SW480 cells assessed as reduction in cell viability up to 40 uM after 48 hrs by MTT assay
HL-60 [9] = test: Cytotoxicity against human HL60 cells assessed as reduction in cell viability up to 40 uM after 48 hrs by MTT assay
MCF7 [10] = test: Cytotoxicity against human MCF7 cells assessed as reduction in cell viability up to 40 uM after 48 hrs by MTT assay
SMMC-7721 [11] = test: Cytotoxicity against human SMMC7721 cells assessed as reduction in cell viability up to 40 uM after 48 hrs by MTT assay
A549 [12] = test: Cytotoxicity against human A549 cells assessed as reduction in cell viability up to 40 uM after 48 hrs by MTT assay

Compound | inhibition (RAW264.7 [1]) | Activity (A549 [2]) | Activity (SMMC-7721 [3]) | Activity (SW480 [4]) | Activity (HL-60 [5]) | Activity (MCF7 [6]) | IC50 (B-cell line) [µM] | IC50 (RAW264.7 [7]) [µM] | IC50 (T-cell) [µM] | Activity (SW480 [8]) | Activity (HL-60 [9]) | Activity (MCF7 [10]) | Activity (SMMC-7721 [11]) | Activity (A549 [12])
Cc1ccc2c(c1)[C@H](C)C[C@H](O)[C@@H]1C(=O)OC[C@@H]21 | inactive | inactive | inactive | inactive | inactive | inactive | 22.4 |  |  |  |  |  |  | 
C[C@@H]1CC[C@H]2C(C(=O)O)=C[C@@H]3C[C@@](C)(C(=O)O)C[C@@]132 |  | inactive | inactive | inactive | inactive | inactive |  | 22.7 |  |  |  |  |  | 
Cc1cc2c(cc1O)C1=C(CC[C@H]2C)C(=O)OC1 | inactive | inactive | inactive | inactive | inactive | inactive | 13.6 |  | 16.7 |  |  |  |  | 
C[C@@H]1C[C@H](O)C2=C(COC2=O)C2=C[C@](C)(CO)C[C@@H]21 | inactive |  |  |  |  |  |  |  |  | Active | Active | Active | Active | Active
C[C@@H]1C[C@H](O)C2=C(COC2=O)C2=CC(C)(C)C[C@@H]21 | inactive |  |  |  |  |  |  |  |  | Active | Active | Active | Active | Active
C[C@H]1CCC2=C(COC2=O)[C@@]2(O)CC(C)(C)C[C@@H]12 | inactive |  |  |  |  |  |  |  |  | Active | Active | Active | Active | Active
C[C@H]1CCC2=C(COC2=O)[C@@H]2CC(C)(C)[C@H](O)[C@@H]12 | inactive |  |  |  |  |  |  |  |  | Active | Active | Active | Active | Active
C[C@@H]1C[C@H](O)C2=C(COC2=O)[C@]23O[C@H]2C(C)(C)C[C@]13O | inactive | inactive | inactive | inactive | inactive | inactive |  |  |  |  |  |  |  | 
C[C@H]1[C@H]2CC(C)(C)C[C@@H]2C2=C(C[C@@H]1O)C(=O)OC2 | inactive | inactive | inactive | inactive | inactive | inactive |  |  |  |  |  |  |  | 
C[C@@H]1C[C@H](O)C2=C(COC2=O)[C@]23O[C@H]2C(C)(C)C[C@H]13 | inactive | inactive | inactive | inactive | inactive | inactive |  |  |  |  |  |  |  | 
C[C@H]1C[C@@H](O)C2=C(COC2=O)[C@@H]2CC(C)(C)C[C@@H]12 | inactive | inactive | inactive | inactive | inactive | inactive |  |  |  |  |  |  |  | 
